Legend:
human GCGR = biological target: T1, human GCGR (Homo sapiens, UniProt P47871); test: cAMP activity assay (HitHunter cAMP XS), cells expressing human GCGR; type: cell-based; settings: for EC50: Table 2, cAMP production, read-out: EC50 hGCGR
T1 construct: expressed in transfected cells
Procedure: (§1) Peptides were dissolved in 100% DMSO and serially diluted to generate 10 point titrations. The peptide solutions were then transferred into 384-well assay plates (150 nL/well). Assay ready frozen cells expressing human GLP1R or human GCGR were suspended in growth media consisting of DMEM medium (GIBCO), 10% FBS (GIBCO), 1×NEAA(GIBCO), 1× P/S (GIBCO), 10 ug/ml Blasticidin (GIBCO) and 200 μg/mL Hygromycin (GIBCO). […] The cell suspensions (15 μL) were then added to the assay plates containing the peptide solutions (30,000 cells/well for human GCGR; 10,000 cells/well for human GLP1R). The cells were incubated for 1 hour at room temperature in the dark. Production of cAMP was determined using HitHunter™ cAMPXS kits (DiscoverX) following manufacturer protocol. The plates were incubated for overnight at room temperature in the dark. Luminescence was measured using an EnVision Multilabel plate reader (Perkin Elmer). […] EC50 values were calculated using uses a 4 parameter logistic fit based on the Levenberg-Marquardt algorithm.

human GLP1R = biological target: T2, human GLP1R (Homo sapiens, UniProt P43220); test: cAMP activity assay (HitHunter cAMP XS), cells expressing human GLP1R; type: cell-based; settings: Table 2; cAMP production; read-out: EC50 hGLP1R
T2 construct: expressed in transfected cells
Procedure: as §1

T2 sequence (P43220 24-463): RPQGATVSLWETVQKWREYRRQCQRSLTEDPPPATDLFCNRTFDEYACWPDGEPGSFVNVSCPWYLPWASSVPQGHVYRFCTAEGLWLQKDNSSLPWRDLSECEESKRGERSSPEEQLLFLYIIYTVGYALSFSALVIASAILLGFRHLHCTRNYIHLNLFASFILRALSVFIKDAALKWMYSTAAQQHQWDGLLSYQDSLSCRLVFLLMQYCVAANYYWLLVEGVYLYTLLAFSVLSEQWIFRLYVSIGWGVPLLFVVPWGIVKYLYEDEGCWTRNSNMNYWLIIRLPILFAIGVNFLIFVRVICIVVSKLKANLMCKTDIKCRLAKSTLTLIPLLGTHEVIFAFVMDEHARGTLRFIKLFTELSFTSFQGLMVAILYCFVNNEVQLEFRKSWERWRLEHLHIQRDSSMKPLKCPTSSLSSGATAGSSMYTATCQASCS
T1 sequence (P47871 26-477): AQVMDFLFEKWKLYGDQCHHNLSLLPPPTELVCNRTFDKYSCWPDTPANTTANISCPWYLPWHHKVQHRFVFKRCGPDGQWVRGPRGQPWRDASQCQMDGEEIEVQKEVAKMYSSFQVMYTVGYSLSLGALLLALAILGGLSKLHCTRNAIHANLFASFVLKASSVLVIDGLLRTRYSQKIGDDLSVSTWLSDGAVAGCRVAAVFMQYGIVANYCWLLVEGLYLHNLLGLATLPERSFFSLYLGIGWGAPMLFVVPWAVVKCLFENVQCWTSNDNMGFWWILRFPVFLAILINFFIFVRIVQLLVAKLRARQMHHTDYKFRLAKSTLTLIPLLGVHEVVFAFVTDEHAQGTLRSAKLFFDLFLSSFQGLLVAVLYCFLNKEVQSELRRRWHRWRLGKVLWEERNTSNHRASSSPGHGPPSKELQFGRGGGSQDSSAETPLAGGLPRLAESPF

Compound	EC50 (human GCGR) [nM]	EC50 (human GLP1R) [nM]	balance of activity at the GCG and GLP-1 receptors (human GCGR; in words, both receptors)
CC(C)C[C@H](NC(=O)[C@H](Cc1ccc(O)cc1)NC(=O)[C@H](CCCCN)NC(=O)[C@H](CO)NC(=O)[C@H](Cc1ccc(O)cc1)NC(=O)[C@H](CC(=O)O)NC(=O)[C@H](CO)NC(=O)[C@@H](NC(=O)[C@H](Cc1ccccc1)NC(=O)[C@@H](NC(=O)CNC(=O)[C@H](CCC(N)=O)NC(=O)[C@H](CO)NC(=O)[C@@H](N)Cc1c[nH]cn1)[C@@H](C)O)[C@@H](C)O)C(=O)N[C@@H](CC(=O)O)C(=O)N[C@@H](Cc1c[nH]c2ccccc12)C(=O)N[C@@H](CCCNC(=N)N)C(=O)N[C@@H](CCCNC(=N)N)C(=O)N[C@@H](C)C(=O)N[C@@H](CCC(N)=O)C(=O)N[C@@H](CC(=O)O)C(=O)N[C@@H](Cc1ccccc1)C(=O)N[C@H](C(=O)N[C@@H](CCC(N)=O)C(=O)N[C@@H](Cc1c[nH]c2ccccc12)C(=O)N[C@@H](CC(C)C)C(=O)N[C@@H](CC(C)C)C(=O)N[C@@H](CC(N)=O)C(=O)N[C@H](C(N)=O)[C@@H](C)O)C(C)C [PD23]	0.03	0.05	–
CC[C@H](C)[C@H](NC(=O)[C@H](CC(C)C)NC(=O)[C@H](Cc1c[nH]c2ccccc12)NC(=O)[C@H](CCC(N)=O)NC(=O)[C@@H](NC(=O)[C@H](Cc1ccccc1)NC(=O)[C@H](CC(=O)O)NC(=O)[C@H](CCC(N)=O)NC(=O)[C@H](C)NC(=O)[C@H](CCCNC(=N)N)NC(=O)[C@H](CCCNC(=N)N)NC(=O)[C@H](C)NC(=O)[C@H](CC(=O)O)NC(=O)[C@H](CC(C)C)NC(=O)[C@H](Cc1ccc(O)cc1)NC(=O)[C@H](CCCCN)NC(=O)[C@H](CO)NC(=O)[C@H](Cc1ccc(O)cc1)NC(=O)[C@H](CC(=O)O)NC(=O)[C@H](CO)NC(=O)[C@@H](NC(=O)[C@H](Cc1ccccc1)NC(=O)[C@@H](NC(=O)CNC(=O)[C@H](CCC(N)=O)NC(=O)[C@H](CO)NC(=O)[C@@H](N)Cc1c[nH]cn1)[C@@H](C)O)[C@@H](C)O)C(C)C)C(=O)N[C@@H](CCCNC(=N)N)C(=O)N[C@H](C(N)=O)[C@@H](C)O [PD25]	0.04	0.02	–
CC[C@H](C)[C@H](NC(=O)[C@H](CC(C)C)NC(=O)[C@H](Cc1c[nH]c2ccccc12)NC(=O)[C@H](CCC(N)=O)NC(=O)[C@@H](NC(=O)[C@H](Cc1ccccc1)NC(=O)[C@H](CC(=O)O)NC(=O)[C@H](CCC(N)=O)NC(=O)[C@H](C)NC(=O)[C@H](CCCNC(=N)N)NC(=O)[C@H](CCCNC(=N)N)NC(=O)[C@H](CO)NC(=O)[C@H](CC(=O)O)NC(=O)[C@H](CC(C)C)NC(=O)[C@H](Cc1ccc(O)cc1)NC(=O)[C@H](CCCCN)NC(=O)[C@H](CO)NC(=O)[C@H](Cc1ccc(O)cc1)NC(=O)[C@H](CC(=O)O)NC(=O)[C@H](CO)NC(=O)[C@@H](NC(=O)[C@H](Cc1ccccc1)NC(=O)[C@@H](NC(=O)CNC(=O)[C@H](CCC(N)=O)NC(=O)[C@H](CO)NC(=O)[C@@H](N)Cc1c[nH]cn1)[C@@H](C)O)[C@@H](C)O)C(C)C)C(=O)N[C@@H](CC(N)=O)C(=O)N[C@@H](Cc1ccc(O)cc1)C(N)=O [PD31]	0.06	0.04	–
CSCC[C@H](NC(=O)[C@H](CC(C)C)NC(=O)[C@H](Cc1c[nH]c2ccccc12)NC(=O)[C@H](CCC(N)=O)NC(=O)[C@@H](NC(=O)[C@H](Cc1ccccc1)NC(=O)[C@H](CC(=O)O)NC(=O)[C@H](CCC(N)=O)NC(=O)[C@H](C)NC(=O)[C@H](CCCNC(=N)N)NC(=O)[C@H](CCCNC(=N)N)NC(=O)[C@H](CO)NC(=O)[C@H](CC(=O)O)NC(=O)[C@H](CC(C)C)NC(=O)[C@H](Cc1c[nH]c2ccccc12)NC(=O)[C@H](Cc1c[nH]cn1)NC(=O)[C@H](CO)NC(=O)[C@H](Cc1ccc(O)cc1)NC(=O)[C@H](CC(=O)O)NC(=O)[C@H](CO)NC(=O)[C@H](Cc1ccccc1)NC(=O)[C@H](Cc1ccccc1)NC(=O)[C@@H](NC(=O)CNC(=O)[C@H](CCC(N)=O)NC(=O)[C@H](CO)NC(=O)[C@@H](N)Cc1c[nH]cn1)[C@@H](C)O)C(C)C)C(=O)N[C@@H](CC(N)=O)C(=O)N[C@H](C(N)=O)[C@@H](C)O [PD43]	0.03	0.04	–
CC(C)C[C@H](NC(=O)[C@H](Cc1ccc(O)cc1)NC(=O)[C@H](CCCCN)NC(=O)[C@H](CO)NC(=O)[C@H](Cc1ccc(O)cc1)NC(=O)[C@H](CC(=O)O)NC(=O)[C@H](CO)NC(=O)[C@@H](NC(=O)[C@H](Cc1ccccc1)NC(=O)[C@@H](NC(=O)CNC(=O)[C@H](CCC(N)=O)NC(=O)[C@H](CO)NC(=O)[C@@H](N)Cc1c[nH]cn1)[C@@H](C)O)[C@@H](C)O)C(=O)N[C@@H](CC(=O)O)C(=O)N[C@@H](Cc1c[nH]c2ccccc12)C(=O)N[C@@H](CCCNC(=N)N)C(=O)N[C@@H](CCCNC(=N)N)C(=O)N[C@@H](C)C(=O)N[C@@H](CCC(N)=O)C(=O)N[C@@H](CC(=O)O)C(=O)N[C@@H](Cc1ccccc1)C(=O)N[C@H](C(=O)N[C@@H](CCC(N)=O)C(=O)N[C@@H](Cc1c[nH]c2ccccc12)C(=O)N[C@@H](CC(C)C)C(=O)N[C@@H](CCC(N)=O)C(=O)N[C@@H](CC(N)=O)C(=O)N[C@H](C(N)=O)[C@@H](C)O)C(C)C [PD44]	0.02	0.01	relatively balanced potent activity at the GCG and GLP-1 receptors
CC(C)C[C@H](NC(=O)[C@H](CC(C)C)NC(=O)[C@H](Cc1c[nH]c2ccccc12)NC(=O)[C@H](CC(=O)O)NC(=O)[C@@H](NC(=O)[C@H](Cc1ccccc1)NC(=O)[C@H](CC(=O)O)NC(=O)[C@H](CCC(N)=O)NC(=O)[C@H](C)NC(=O)[C@H](CCCNC(=N)N)NC(=O)[C@H](CCCNC(=N)N)NC(=O)[C@H](CO)NC(=O)[C@H](CC(=O)O)NC(=O)[C@H](CC(C)C)NC(=O)[C@H](Cc1ccc(O)cc1)NC(=O)[C@H](CCCCN)NC(=O)[C@H](CO)NC(=O)[C@H](Cc1ccc(O)cc1)NC(=O)[C@H](CC(=O)O)NC(=O)[C@H](CO)NC(=O)[C@@H](NC(=O)[C@H](Cc1ccccc1)NC(=O)[C@@H](NC(=O)CNC(=O)[C@H](CCC(N)=O)NC(=O)[C@H](CO)NC(=O)[C@@H](N)Cc1c[nH]cn1)[C@@H](C)O)[C@@H](C)O)C(C)C)C(=O)N[C@@H](CC(N)=O)C(=O)N[C@@H](C)C(N)=O [PD48]	0.07	0.02	–
CC[C@H](C)[C@H](NC(=O)[C@H](CC(C)C)NC(=O)[C@H](Cc1c[nH]c2ccccc12)NC(=O)[C@H](CC(=O)O)NC(=O)[C@@H](NC(=O)[C@H](Cc1ccccc1)NC(=O)[C@H](CC(=O)O)NC(=O)[C@H](CCC(N)=O)NC(=O)[C@H](C)NC(=O)[C@H](CCCNC(=N)N)NC(=O)[C@H](CCCNC(=N)N)NC(=O)[C@H](CO)NC(=O)[C@H](CC(=O)O)NC(=O)[C@H](CC(C)C)NC(=O)[C@H](Cc1ccc(O)cc1)NC(=O)[C@H](CCCCN)NC(=O)[C@H](CO)NC(=O)[C@H](Cc1ccc(O)cc1)NC(=O)[C@H](CC(=O)O)NC(=O)[C@H](CO)NC(=O)[C@@H](NC(=O)[C@H](Cc1ccccc1)NC(=O)[C@@H](NC(=O)CNC(=O)[C@H](CCC(N)=O)NC(=O)[C@H](CO)NC(=O)[C@@H](N)Cc1c[nH]cn1)[C@@H](C)O)[C@@H](C)O)C(C)C)C(=O)N[C@@H](CC(N)=O)C(=O)N[C@@H](CO)C(N)=O [PD50]	0.02	0.01	–
CSCC[C@H](NC(=O)[C@H](CC(C)C)NC(=O)[C@H](Cc1c[nH]c2ccccc12)NC(=O)[C@H](CCC(N)=O)NC(=O)[C@@H](NC(=O)[C@H](Cc1ccccc1)NC(=O)[C@H](CC(=O)O)NC(=O)[C@H](CCC(N)=O)NC(=O)[C@H](C)NC(=O)[C@H](CCCNC(=N)N)NC(=O)[C@H](CCCNC(=N)N)NC(=O)[C@H](CO)NC(=O)[C@H](CC(=O)O)NC(=O)[C@H](CC(C)C)NC(=O)[C@H](Cc1ccc(O)cc1)NC(=O)[C@H](CCCCN)NC(=O)[C@H](CO)NC(=O)[C@H](Cc1ccc(O)cc1)NC(=O)[C@H](CC(=O)O)NC(=O)[C@H](CO)NC(=O)[C@@H](NC(=O)[C@H](Cc1ccccc1)NC(=O)[C@@H](NC(=O)CNC(=O)[C@H](Cc1c[nH]cn1)NC(=O)[C@H](CO)NC(=O)[C@@H](N)Cc1c[nH]cn1)[C@@H](C)O)[C@@H](C)O)C(C)C)C(=O)N[C@H](C(=O)N[C@H](C(N)=O)[C@@H](C)O)[C@@H](C)O [PD51]	0.03	0.02	–
CSCC[C@H](NC(=O)[C@H](CC(=O)O)NC(=O)[C@H](CC(C)C)NC(=O)[C@H](Cc1ccc(O)cc1)NC(=O)[C@H](CCCCN)NC(=O)[C@H](CO)NC(=O)[C@H](Cc1ccc(O)cc1)NC(=O)[C@H](CC(=O)O)NC(=O)[C@H](CO)NC(=O)[C@@H](NC(=O)[C@H](Cc1ccccc1)NC(=O)[C@@H](NC(=O)CNC(=O)[C@H](CCC(N)=O)NC(=O)[C@H](CO)NC(=O)[C@@H](N)Cc1c[nH]cn1)[C@@H](C)O)[C@@H](C)O)C(=O)N[C@@H](CCC(N)=O)C(=O)N[C@@H](CCCNC(=N)N)C(=O)N[C@@H](C)C(=O)N[C@@H](Cc1c[nH]cn1)C(=O)N[C@@H](CC(=O)O)C(=O)N[C@@H](Cc1ccccc1)C(=O)N[C@H](C(=O)N[C@@H](CCC(N)=O)C(=O)N[C@@H](Cc1c[nH]c2ccccc12)C(=O)N[C@@H](CC(C)C)C(=O)N[C@@H](CCSC)C(=O)N[C@@H](CC(N)=O)C(=O)N[C@H](C(N)=O)[C@@H](C)O)C(C)C [PD55]	0.01	0.01	–

— patent US10493125B2 (Merck Sharp & Dohme Corp., priority 2015, dated 2019)
